According to patent US10420815B2, “Combinational therapy for synergistic inhibition of gram-positive and gram-negative bacteria” (priority 2015, dated 2019):
Where two headings read alike, the source gives them in different places.

Experiments:
Format in all cases: cell-based, Staphylococcus aureus
MRSA 3095 = assay: microbe, parasite or virus in culture; settings: Staphylococcus aureus; MRSA 3095 (human/skin); read-out: MIC
From the text: (§1) MRSA (ATCC 33593), MSSA (ATCC 29213), and MRSA USA300 (BAA-1680) strains were purchased from the American Type Culture Collection (ATCC; Manassas, Va.). Eight clinical isolates of MRSA were obtained from the Culture Collection of Antimicrobial Resistant Microbes, Korea National Research Resource Center (KNRRC). Salmonella enterica Typhimurium LT2 was purchased from ATCC, and Escherichia coli O157:H7 is a kind gift from Dr. Sangryeol Ryu (Seoul National University, South Korea). All S. aureus strains were maintained in Trypticase Soy (TS) medium, and E. coli O157:H7 and Salmonella were routinely grown aerobically on Luria-Bertani (LB) media at 37° C. For measuring growth kinetics, an overnight culture of MRSA in Mueller-Hinton (MH) broth was diluted 100-fold in fresh MH broth and cultured until early exponential phase. The culture (200 μl) was transferred to each well of a sterile 96-well plate and incubated at 37° C. with bacitracin alone, alkyl gallate alone, and combination of bacitracin/alkyl gallates at various concentrations. The optical density at 600 nm (OD600) was measured every hour with FLUOstar® Omega (BMG Labtech, Germany).
(§2) Broth micro dilution assays were performed to determine the minimum inhibitory concentrations (MIC) accordance to the M7-A7 protocol of the Clinical and Laboratory Standards Institute (CLSI) guidelines^28. The susceptibility test was carried out with an initial bacterial inoculum of 1.5×10^5 CFU ml^−1. Alkyl gallates and bacitracin were serially diluted in a polystyrene 96 well plate and the plate was incubated at 37° C. for 24 h. Minimum bactericidal concentration (MBC) was determined by spotting 10 μl of cultures from MIC tests onto MH agar and incubated aerobically at 37° C.

MRSA 3795 = assay: microbe, parasite or virus in culture
From the text: as §1, §2

MRSA 3799 = assay: microbe, parasite or virus in culture
From the text: as §1, §2

MRSA 3823 = assay: microbe, parasite or virus in culture
From the text: as §1, §2

MRSA 3865 = assay: microbe, parasite or virus in culture
From the text: as §1, §2

MRSA 3876 = assay: microbe, parasite or virus in culture
From the text: as §1, §2

MRSA 3903 = assay: microbe, parasite or virus in culture
From the text: as §1, §2

MRSA (ATCC 33593) = assay: microbe, parasite or virus in culture; settings: for MIC: Staphylococcus aureus
From the text: as §1, §2
(§3) MICs were determined with MRSA and methicillin-sensitive S. aureus (MSSA) using a broth dilution method as described above.
(§4) MRSA and MSSA were cultured overnight with antioxidants (0.5 μg/ml) and bacitracin at various concentrations and 10 μL of the culture was spotted on MH agar plates and incubated aerobically at 37° C. to observe the bacterial viability. The results in FIGS. 9A, 9B, 9C and 9D (photographs of plates) show the Minimal Bactericidal Concentrations (MBCs) for indicated antioxidants. Bacitracin killed MRSA and MSSA at concentrations greater than or equal to 2 μg/mi.

MSSA (ATCC 29213) = assay: MIC (broth dilution) and MBC (spotting) of phenolic antioxidants and bacitracin; settings: for MIC: antioxidant alone
From the text: as §1, §2, §3, §4

MRSA 3A585 = assay: microbe, parasite or virus in culture
From the text: as §1, §2

[1] = system: MRSA (normal MRSA strain, not USA300); assay: MRSA growth (optical density) with bacitracin and phenolic antioxidants
From the text: as §1
MRSA were grown with bacitracin (0.002 μg/mL) with antioxidant (as shown) at 0.5 μg/mL.
FIG. 7A is growth with no added bacitracin or lauryl gallate.
The optical density of MRSA was measured after 18 h culture with bacitracin (0.002 μg/ml) and antioxidants (as indicated at 0.5 μg/ml). Also measured were controls with no additions, with bacitracin alone and with antioxidant alone. FIGS. 8A, 8B, 8C and 8D are graphs illustrating the results.

[2] = Staphylococcus aureus, MRSA 3795 (human/nose), read-out: MIC
[3] = Staphylococcus aureus, MRSA 3799 (human/nose), read-out: MIC
[4] = Staphylococcus aureus, MRSA 3823 (human/nose), read-out: MIC
[5] = Staphylococcus aureus, MRSA 3865 (human/skin), read-out: MIC
[6] = Staphylococcus aureus, MRSA 3876 (human/skin), read-out: MIC
[7] = Staphylococcus aureus, MRSA 3903 (human/skin), read-out: MIC
[8] = MRSA, antioxidant alone, read-out: MIC
[9] = Staphylococcus aureus, read-out: MIC

`CCn1cc(C(=O)O)c(=O)c2cc(F)c(N3CCNCC3)cc21` [NOR, norfloxacin] was tested. Which MIC (MRSA 3095) did it give?
The MIC was no less than 128 mg/L.

What about the MIC (MRSA 3795; [2]) of the same compound?
Its MIC is 0.5 mg/L.

And the MIC (MRSA 3799; [3])?
The MIC was 0.25 mg/L.

And the MIC (MRSA 3823; [4])?
The MIC was 32 mg/L.

And the MIC (MRSA 3865; [5])?
Its MIC is no less than 128 mg/L.

What about the MIC (MRSA 3876; [6]) of the same compound?
The MIC was 0.25 mg/L.

And the MIC (MRSA 3903; [7])?
Its MIC is 64 mg/L.

For `O=C1C[C@@H](c2ccc(O)cc2)Oc2cc(O)cc(O)c21` [Narigenine, naringenin], which MIC (MRSA (ATCC 33593); [8]) is on record?
The MIC was greater than 1020 mg/L.

And the MIC (MSSA (ATCC 29213); [9])?
The MIC was greater than 1020 mg/L.

For `Cc1onc(-c2ccccc2)c1C(=O)N[C@@H]1C(=O)N2[C@@H]1SC(C)(C)[C@@H]2C(=O)O` [OXA, oxacillin], which MIC (MRSA 3095) is on record?
Its MIC is no less than 64 mg/L.

What about the MIC (MRSA 3795; [2]) of the same compound?
The MIC was no less than 128 mg/L.

And the MIC (MRSA 3799; [3])?
Its MIC is no less than 128 mg/L.

What about the MIC (MRSA 3823; [4]) of the same compound?
The MIC was 128 mg/L.

And the MIC (MRSA 3865; [5])?
Its MIC is 128 mg/L.

What about the MIC (MRSA 3876; [6]) of the same compound?
Its MIC is 128 mg/L.

What about the MIC (MRSA 3903; [7]) of the same compound?
Its MIC is no less than 128 mg/L.

And the MIC (MRSA 3A585; Staphylococcus aureus, MRSA 3A585 (human/blood), read-out: MIC)?
Its MIC is greater than 2 mg/L.

How did the MIC (MRSA (ATCC 33593); [8]) turn out when `O=c1c(O)c(-c2ccc(O)c(O)c2)oc2cc(O)cc(O)c12` [Quercetin, quercetin] was run?
Its MIC is greater than 1020 mg/L.

And the MIC (MSSA (ATCC 29213); [9])?
Its MIC is greater than 1020 mg/L.

`O=C(O)c1ccccc1O` [Salicylic acid, salicylic acid] was tested. Which MIC (MRSA (ATCC 33593); [8]) did it give?
The MIC was greater than 1020 mg/L.

What about the MIC (MSSA (ATCC 29213); [9]) of the same compound?
The MIC was greater than 1020 mg/L.

How did the MIC (MRSA (ATCC 33593)) turn out when `COc1cc(/C=C/C(=O)O)cc(OC)c1O` [Sinapic acid, sinapic acid] was run?
The MIC was greater than 1020 mg/L.

And the MIC (MSSA (ATCC 29213); [9])?
The MIC was greater than 1020 mg/L.

With `CN(C)[C@@H]1C(O)=C(C(N)=O)C(=O)[C@@]2(O)C(O)=C3C(=O)c4c(O)cccc4[C@@](C)(O)[C@H]3C[C@@H]12` [TET, tetracycline] as the compound, how does the MIC (MRSA 3795; Staphylococcus aureus, MRSA) read?
The MIC was 16 mg/L.

What about the MIC (MRSA 3799; Staphylococcus aureus, MRSA) of the same compound?
The MIC was 64 mg/L.

And the MIC (MRSA 3823; Staphylococcus aureus, MRSA)?
Its MIC is 64 mg/L.

What about the MIC (MRSA 3865; Staphylococcus aureus, MRSA) of the same compound?
The MIC was 32 mg/L.

What about the MIC (MRSA 3876; Staphylococcus aureus, MRSA) of the same compound?
The MIC was 16 mg/L.

What about the MIC (MRSA 3903; Staphylococcus aureus, MRSA) of the same compound?
The MIC was 128 mg/L.

And the MIC (MRSA 3A585; Staphylococcus aureus, MRSA)?
Its MIC is no less than 8 mg/L.

What does the source list for `O=C(OC[C@H]1O[C@@H](OC(=O)c2cc(O)c(O)c(OC(=O)c3cc(O)c(O)c(O)c3)c2)[C@H](OC(=O)c2cc(O)c(O)c(OC(=O)c3cc(O)c(O)c(O)c3)c2)[C@@H](OC(=O)c2cc(O)c(O)c(OC(=O)c3cc(O)c(O)c(O)c3)c2)[C@@H]1OC(=O)c1cc(O)c(O)c(OC(=O)c2cc(O)c(O)c(O)c2)c1)c1cc(O)c(O)c(OC(=O)c2cc(O)c(O)c(O)c2)c1` [Tannic acid, tannic acid]?
fold decrease of bacitracin MBC by antioxidant (MRSA (ATCC 33593); MRSA, antioxidant 0.5 μg/ml, compared to bacitracin alone): 4 fold; MIC (MRSA (ATCC 33593)): 512 mg/L; MIC (MRSA (ATCC 33593); [8]): 1020 mg/L; MIC (MSSA (ATCC 29213); [9]): 256 mg/L; fold decrease of bacitracin MBC by antioxidant (MSSA (ATCC 29213); antioxidant 0.5 μg/ml, compared to bacitracin alone): 8 fold; MIC (MSSA (ATCC 29213)): 128 mg/L; growth of MRSA with bacitracin plus antioxidant ([1]; bacitracin 0.002 μg/mL, antioxidant 0.5 μg/mL, FIG. 6): significantly inhibited the growth of MRSA; optical density of MRSA after 18 h culture: inhibition of growth in combination with bacitracin ([1]; bacitracin 0.002 μg/ml (ca. 0.0002 U), antioxidant 0.5 μg/ml, 18 h, FIG. 8): significantly inhibited MRSA

`O=C1c2c(O)cc(O)cc2O[C@H](c2ccc(O)c(O)c2)[C@H]1O` [Taxifolin, taxifolin] was tested. Which MIC (MRSA (ATCC 33593); [8]) did it give?
The MIC was greater than 1020 mg/L.

And the MIC (MSSA (ATCC 29213); [9])?
Its MIC is greater than 1020 mg/L.

Which results are given for `COc1cc(C(=O)O)ccc1O` [Vanillic acid, vanillic acid]?
MIC (MRSA (ATCC 33593); [8]): > 1020 mg/L; MIC (MSSA (ATCC 29213); [9]): > 1020 mg/L

With gentamicin as the compound, how does the MIC (MRSA 3795; MRSA 3795 (human/nose)) read?
The MIC was no less than 128 mg/L.

What about the MIC (MRSA 3799; MRSA 3799 (human/nose)) of the same compound?
Its MIC is 32 mg/L.

What about the MIC (MRSA 3823; MRSA 3823 (human/nose)) of the same compound?
The MIC was no less than 128 mg/L.

And the MIC (MRSA 3865; MRSA 3865 (human/skin))?
The MIC was 32 mg/L.

And the MIC (MRSA 3876; MRSA 3876 (human/skin))?
The MIC was 32 mg/L.

What about the MIC (MRSA 3903; MRSA 3903 (human/skin)) of the same compound?
The MIC was no less than 128 mg/L.

What about the MIC (MRSA 3A585; MRSA 3A585 (human/blood)) of the same compound?
The MIC was no less than 8 mg/L.

penicillin was tested. Which MIC (MRSA 3795; MRSA 3795 (human/nose)) did it give?
Its MIC is 16 mg/L.

And the MIC (MRSA 3799; MRSA 3799 (human/nose))?
Its MIC is 8 mg/L.

And the MIC (MRSA 3823; MRSA 3823 (human/nose))?
Its MIC is 16 mg/L.

And the MIC (MRSA 3865; MRSA 3865 (human/skin))?
The MIC was 16 mg/L.

And the MIC (MRSA 3876; MRSA 3876 (human/skin))?
Its MIC is 16 mg/L.

What about the MIC (MRSA 3903; MRSA 3903 (human/skin)) of the same compound?
Its MIC is 32 mg/L.
